Where two headings read alike, the source gives them in different places.
Assays:
[1] = test system: Human T-lymphoblastic leukemia cell line CEM; experiment: In vitro cytotoxic activity, Calcein AM assay, CEM; format: cell-based; conditions: 72 hours
In short: (§1)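 Cells seeded at 10^4 per well, pre-incubated 24 h at 37 °C/5% CO2, then exposed 72 h to six 4-fold dilutions of compound (top well concentration usually 166.7 μM) in duplicate. Viability read by Calcein AM fluorescence after 1 h; GI50 taken from dose-response curves.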

promyelocytic HL-60 = experiment: In vitro cytotoxic activity, Calcein AM assay, HL60; format: cell-based, human; conditions: read-out: IC 50 HL60
In short: as §1

[2] = test system: breast carcinoma cell lines MCF-7; experiment: In vitro cytotoxic activity, Calcein AM assay, MCF7; format: cell-based, human; conditions: read-out: IC 50 MCF7
In short: as §1

[3] = test system: human malignant melanoma cells G361; experiment: In vitro cytotoxic activity, Calcein AM assay, G-361; format: cell-based; conditions: read-out: IC 50 G-361
From the text: One of the parameters used, as the basis for cytotoxicity assays, is the metabolic activity of viable cells. For example, a microtiter assay, which uses the Calcein AM, is now widely used to quantitate cell proliferation and cytotoxicity. For instance, this assay is used in drug screening programs and in chemosensitivity testing. Because only metabolically active cells cleave Calcein AM, these assays detect viable cells exclusively. The quantity of reduced Calcein AM corresponds to the number of vital cells in the culture.
Human T-lymphoblastic leukemia cell line CEM; promyelocytic HL-60 and monocytic U937 leukemias; breast carcinoma cell lines MCF-7; cervical carcinoma cells HELA; mouse fibroblasts NIH3T3; human erythroleukaemia K562 and human malignant melanoma cells G361 were used for routine screening of compounds. The cells were maintained in Nunc/Corning 80 cm^2 plastic tissue culture flasks and cultured in cell culture medium (DMEM with 5 g/l glucose, 2 mM glutamine, 100 U/ml penicillin, 100 μg/ml streptomycin, 10% fetal calf serum and sodium bicarbonate).
The cell suspensions that were prepared and diluted according to the particular cell type and the expected target cell density (10^4 cells per well based on cell growth characteristics) were added by pipette (80 μl) into 96/well microtiter plates. Inoculates were allowed a pre-incubation period of 24 hours at 37° C. and 5% CO2 for stabilisation. Four-fold dilutions of the intended test concentration were added at time zero in 20 μl aliquots to the microtiter plate wells. Usually, test compound was evaluated at six 4-fold dilutions. In routine testing, the highest well concentration was 166.7 μM, but it can be the matter of change dependent on the agent. All drug concentrations were examined in duplicates. Incubations of cells with the test compounds lasted for 72 hours at 37° C., in 5% CO2 atmosphere and 100% humidity. At the end of incubation period, the cells were assayed by using the Calcein AM. Ten microliters of the stock solution were pipetted into each well and incubated further for 1 hours. Fluorescence (FD) was measured with the Labsystem FIA Reader Fluoroscan Ascent (UK). The tumour cell survival (GI50) was calculated using the following equitation: GI50=(FDdrug exposed well/mean FDcontrol wells)×100%. The GI50 value, the drug concentration lethal to 50% of the tumour cells, was calculated from the obtained dose response curves (FIG. 3).

[4] = test system: human erythroleukaemia K562; experiment: In vitro cytotoxic activity, Calcein AM assay, K-562; format: cell-based; conditions: read-out: IC 50 K-562
In short: as §1

mouse fibroblasts NIH3T3 = experiment: In vitro cytotoxic activity, Calcein AM assay, NIH-3T3; format: cell-based; conditions: read-out: IC 50 NIH-3T3
In short: as §1

HOS = experiment: In vitro cytotoxic activity, Calcein AM assay, HOS; format: cell-based; conditions: 72 hours
[5] = test system: Triticum aestivum cv. Hereward; experiment: Senescence inhibition on winter wheat leaf segments (chlorophyll retention); format: in vivo; conditions: for Concentration with highest activity: chlorophyll retention in excised wheat leaf tips, 96 h dark; for Activity (%) [10^−4 mol · l^−1 BAP = 100%]: chlorophyll retention, at concentration with highest activity
Protocol: Seeds of winter wheat, Triticum aestivum cv. Hereward, were washed under running water for 24 hours and then sown on vermiculite soaked with Knop's solution. They were placed in the grown chamber at 15° C. with a 16/8 h light period at 50 μmol·m^−2·s^−1. After 7 days, the first leaf was fully developed and the second leaf had started to grow. A tip section of the first leaf, approximately 35 mm long, was removed from 5 seedlings and trimmed slightly to a combined weight of 100 mg. The basal ends of the five leaf tips were placed in the wells of a microtiter polystyrene plate containing 150 μl of a cytokinin solution each. The entire plate was inserted into a plastic box lined with paper tissues soaked in distilled water to prevent leaf sections from drying out. After a 96 h incubation in the dark at 25° C., the leaves were removed and chlorophyll extracted by heating at 80° C. for 10 min in 5 ml of 80% ethanol (v/v). The sample volume was then restored to 5 ml by the addition of 80% ethanol (v/v). The absorbency of the extract was recorded at 665 nm. In addition, chlorophyll extracts from fresh leaves and leaf tips incubated in deionised water were measured. From the obtained data, the concentration with highest activity was selected for each compound tested. Relative activity of the compound at this concentration was calculated (Tab. 10). The activity obtained for 10^−4 M 6-benzylaminopurine (BAP) was postulated as 100%. The values shown are means of five replicates and the whole experiment was repeated twice. The cytokinins to be tested were dissolved in dimethylsulfoxide (DMSO) and the solution brought up to 10^−3M with distilled water. This stock was further diluted in distilled water to concentrations ranging from 10^−8M to 10^−4M.

[6] = test system: tobacco callus Nicotiana tabacum L. cv. Wisconsin 38; experiment: Growth of cytokinin-dependent tobacco callus; format: cell-based; conditions: for Activity (%) [10^−5 mol · l^−1 BAP = 100%]: callus growth, at concentration with highest activity; for Concentration with highest activity: fresh callus weight after four weeks
Protocol: Cytokinin-dependent tobacco callus Nicotiana tabacum L. cv. Wisconsin 38 was maintained at 25° C. in darkness on modified Murashige-Skoog medium, containing per 1 liter: 4 μmol nicotinic acid, 2.4 μmol pyridoxine hydrochloride, 1.2 μmol thiamine, 26.6 μmol glycine, 1.37 μmol glutamine, 1.8 μmol myo-inositol, 30 g of sucrose, 8 g of agar, 5.37 μmol α-naphtylacetic acid (NAA) and 0.5 μmol benzylaminopurine (BAP). Subcultivation was carried out every three weeks. Fourteen days before the bioassay, the callus tissue was transferred to the media without 6-benzylaminopurine (BAP). Biological activity was determined from the increase in fresh callus weight after four weeks of cultivation. Five replicates were prepared for each cytokinin concentration and the entire test was repeated twice. From the obtained data, the concentration with highest activity was selected for each compound tested. Relative activity of the compound at this concentration was calculated (Tab. 6). […] The cytokinins to be tested were dissolved in dimethylsulfoxide (DMSO) and the solution brought up to 10^−3M with distilled water. This stock was further diluted in the respective media used for the biotest to concentrations ranging from 10^−8M to 10^−4M.

[7] = test system: Amaranthus caudatus cotyledon/hypocotyl explants; experiment: Amaranthus bioassay (betacyanin content); format: in vivo; conditions: for Concentration with highest activity: 48 h dark; for Activity (%) [10^−5 mol · l^−1 BAP = 100%]: at concentration with highest activity
In short: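 Surface-sterilised Amaranthus caudatus var. atropurpurea seeds were germinated 72 h at 25° C. in darkness, then de-rooted. Cotyledon/hypocotyl explants (20 per dish) were incubated under green safe light on filter paper with 1 ml medium of 10 μmol NA2HPO4-KH2PO4, pH 6.8, 5 μmol tyrosine and cytokinin (10^-8M to 10^-4M) for 48 h at 25° C. in darkness. Betacyanin was extracted in […] acetic acid and measured by absorbance at 537 nm and 620 nm.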

SMILES	IC50 [1] [µM]	IC50 (promyelocytic HL-60; 72 hours) [µM]	IC50 ([2]; 72 hours) [µM]	IC50 ([3]; 72 hours) [µM]	IC50 ([4]; 72 hours) [µM]	IC50 (mouse fibroblasts NIH3T3; 72 hours) [µM]	IC50 (HOS) [µM]	IC50 ([1]; Homo sapiens) [µM]	IC50 (promyelocytic HL-60; Homo sapiens, HL-60, 72 hours) [µM]	IC50 ([2]; Homo sapiens, MCF7, 72 hours) [µM]	IC50 ([3]; Homo sapiens, G-361, 72 hours) [µM]	IC50 ([4]; Homo sapiens, K562, 72 hours) [µM]	IC50 (mouse fibroblasts NIH3T3; Mus musculus, NIH3T3, 72 hours) [µM]	IC50 (HOS; Homo sapiens, HOS) [µM]	Concentration with highest activity [5]	Activity (%) [10^−4 mol · l^−1 BAP = 100%] [5] [%]	Activity (%) [10^−5 mol · l^−1 BAP = 100%] [6] [%]	Concentration with highest activity [6]	Concentration with highest activity [7]	Activity (%) [10^−5 mol · l^−1 BAP = 100%] [7] [%]
CSc1nc(NCc2cccc(F)c2)c2ncn([C@@H]3O[C@H](CO)[C@@H](O)[C@H]3O)c2n1 [R2 = SCH3,3-fluorobenzylamino]	8.5	5.2	31	28	7.9	> 167	> 167													
COc1cccc(CNc2nc(SC)nc3c2ncn3[C@@H]2O[C@H](CO)[C@@H](O)[C@H]2O)c1 [R2 = SCH3,3-methoxyxybenzylamino]	16.5	8.8	> 167	> 167	> 167	> 167	> 167													
COc1ccccc1CNc1nc(N)nc2c1ncn2[C@@H]1O[C@H](CO)[C@@H](O)[C@H]1O [R2 = NH2,2-methoxyxybenzylamino, 2-amino-6-(2-methoxybenzylamino)purine riboside]	12.8	7.8	> 167	> 167	34.9	> 167	27.8													
OC[C@H]1O[C@@H](n2cnc3c(NCc4ccc(O)cc4)ncnc32)[C@H](O)[C@@H]1O [4-hydroxybenzylamino, 6-(4-hydroxybenzylamino)purine riboside]	39.7	9.5	> 167	> 167	> 167	> 167	> 167													
Nc1ncnc2c1ncn2[C@@H]1O[C@H](CO)[C@@H](O)[C@H]1O [adenosine]								> 167	> 167	> 167	> 167	> 167	> 167	> 167						
OC[C@H]1O[C@@H](n2cnc3c(NCc4ccc(O)cc4)nc(Cl)nc32)[C@H](O)[C@@H]1O [R2 = Cl, 4-hydroxybenzylamino]	39.7	9.5	> 167	> 167	> 167	> 167	> 167													
OC[C@H]1O[C@@H](n2cnc3c(NCc4cccc(F)c4)nc(Cl)nc32)[C@H](O)[C@@H]1O [R2 = Cl, 3-fluorobenzylamino]	3	0.9	16	16	5.3	> 167	> 167													
COc1ccccc1CNc1nc(SC)nc2c1ncn2[C@@H]1O[C@H](CO)[C@@H](O)[C@H]1O [R2 = SCH3,2-methoxyxybenzylamino]	11.5	10.2	> 167	> 167	34.8	> 167	34.3													
OC[C@H]1O[C@@H](n2cnc3c(NCc4ccccc4Br)ncnc32)[C@H](O)[C@@H]1O [2-bromobenzylamino, 6-(2-bromobenzylamino)purine riboside]	12.3	6.6	> 167		10	> 167	> 167								10^−5 mol · l^−1	86 ± 19	100 ± 4	10^−5 mol · l^−1	10^−4 mol · l^−1	147 ± 7
COc1cccc(CNc2nc(Cl)nc3c2ncn3[C@@H]2O[C@H](CO)[C@@H](O)[C@H]2O)c1O [R2 = Cl, 2-hydroxy-3-methoxybenzylamino]	0.2	0.1	23	140	17	> 167	> 167													
Cc1ccc(CNc2ncnc3c2ncn3[C@@H]2O[C@H](CO)[C@@H](O)[C@H]2O)cc1 [4-methylbenzylamino, 6-(4-methylbenzylamino)purine riboside]	> 167	> 167	> 167		> 167	> 167	> 167								10^−4 mol · l^−1	55 ± 5	95 ± 6	10^−6 mol · l^−1	10^−5 mol · l^−1	32 ± 7

— US8119614B2, “Substitution derivatives of N6-benzyladenosine, methods of their preparation, their use for preparation of drugs, cosmetic preparations and growth regulators, pharmaceutical preparations, cosmetic preparations and growth regulators containing these compounds” (Ustav Experimentalni Botaniky Akademie Ved Ceske Republiky, priority 2002, dated 2012)
